Reference: US7419780B2, “Methods and assays for screening protein targets” (The Trustees of Columbia University in the City of New York, priority 2000, dated 2008)

Test system: S. cerevisiae strain FY250

Compound: C[C@@H]1C[C@H]2[C@@H]3CCC4=CC(=O)C=C[C@]4(C)[C@@]3(F)[C@@H](O)C[C@]2(C)[C@@]1(O)C(=O)CO [DEX, Dexamethasone]
- toxicity (impaired cell growth on plate): neither DEX nor GR are toxic
